Experimental data published in patent US20240294551A1 (AMGEN INC., priority 2022, published 2024).
Like-named read-outs stand apart in the source and are kept apart here.

Legend:
[1] = molecular target: GDP-bound KRAS protein (aa 1-169), containing both G12D and C118A amino acid substitutions (Homo sapiens (Human), UniProt P01116, C118A/G12D); assay: KRAS G12D Coupled Nucleotide Exchange Assay; format: biochemical
Method: KRAS G12D Coupled Nucleotide Exchange Assay
Following compound pre-incubation, purified SOS protein (aa 564-1049) and GTP (Roche 10106399001) were added to the assay wells and incubated for an additional 30 min. To determine the extent of inhibition of SOS-mediated nucleotide exchange, purified GST-tagged cRAF (aa 1-149), nickel chelate AlphaLISA acceptor beads (PerkinElmer AL108R), and AlphaScreen glutathione donor beads (PerkinElmer 6765302) were added to the assay wells and incubated for 10 minutes. The assay plates were then read on a PerkinElmer EnVision Multilabel Reader, using AlphaScreen® technology, and data were analyzed using a 4-parameter logistic model to calculate IC50 values.

[2] = molecular target: His-tagged KRAS G12D protein (Homo sapiens (Human), UniProt P01116, G12D); assay: KRAS G12D TR-FRET Assay; format: binding
Method: Compounds of interest were prepared in a dose-response titration in DMSO, and 80 nL were added via Labcyte Echo to each well of a 384-well plate (Perkin Elmer 6008280). The His-tagged KRAS G12D protein (Amgen) was diluted to 20 nM in Assay Buffer (20 mM HEPES, pH 7.4, 10 mM MgCl2, 50 mM NaCl, 0.1% BSA, 0.01% Tween-20, 10 μM GDP) and 2 μL was added to the appropriate wells of the 384-well plate. The plate was incubated for 30 minutes at room temperature. Biotinylated KRPep-2d substrate (Amgen) was diluted to 20 nM in Assay Buffer and 2 μL was added to all wells and incubated for 1 hour at room temperature. Detection Reagent (0.4 nM LANCE Eu-W1024 Anti-6×His (Perkin Elmer AD0401), 5 nM streptavidin-d2 (Cisbio 610SADLA)) was prepared in Assay Buffer, then 4 μL was added to the plate and incubated for 1 hour at room temperature. Plates were read using PerkinElmer EnVision (ex: 320 nm, em1: 665 nm, em2: 615 nm) and em1/em2 data was used to generate curve fits using a 4-parameter logistic model to calculate IC50 values.

[3] = read-out: KRAS G12D Coupled Exchange IC50
[4] = read-out: KRAS G12D Binding IC50
[5] = 2 hours compound pre-incubation, read-out: KRAS G12D Coupled Exchange
[6] = TR-FRET, read-out: KRAS G12D Binding

Chain of His-tagged KRAS G12D protein (P01116 other isoform, or with tags, fused parts or gaps G12D): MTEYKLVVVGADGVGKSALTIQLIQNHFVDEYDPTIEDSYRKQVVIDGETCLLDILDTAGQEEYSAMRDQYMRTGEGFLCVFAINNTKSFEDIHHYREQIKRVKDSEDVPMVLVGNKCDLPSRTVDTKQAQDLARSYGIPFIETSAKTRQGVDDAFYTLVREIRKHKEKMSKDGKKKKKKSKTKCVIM
Chain of GDP-bound KRAS protein (aa 1-169), containing both G12D and C118A amino acid substitutions (P01116 other isoform, or with tags, fused parts or gaps G12D/C118A): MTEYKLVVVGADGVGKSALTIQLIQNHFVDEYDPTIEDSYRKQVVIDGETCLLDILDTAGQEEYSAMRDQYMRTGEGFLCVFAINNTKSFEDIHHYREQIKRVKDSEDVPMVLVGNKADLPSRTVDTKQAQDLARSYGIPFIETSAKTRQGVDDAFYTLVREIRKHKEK

| Structure (SMILES) | IC50 [1, 3] [nM] | IC50 [2, 4] [nM] | IC50 [1, 5] [nM] | IC50 [2, 6] [nM] |
| --- | --- | --- | --- | --- |
| CN1C(=O)COCC[C@H]2CCc3cc4[nH]ncc4c(c32)-c2ncc3c(nc(OC[C@@]45CCCN4C[C@H](F)C5)nc3c2F)N2CCC[C@@H]1C2 [Example 278, (15R,22R)-34-fluoro-8-(((2R,7aS)-2-fluorotetrahydro-1H-pyrrolo[1,2-a]pyrrol-7a(5H)-yl)methoxy)-16-methyl-19-oxa-3,7,9,11,16,28,29-heptaazaheptacyclo[20.9.1.1~2,6~.1~11,15~.0~5,10~.0~25,32~.0~27,31~]tetratriaconta-1(31),2(34),3,5,7,9,25(32),26,29-nonaen-17-one] | 5900 | 19300 | – | – |
| Fc1c2ncc3c(nc(OC[C@@]45CCCN4C[C@H](F)C5)nc13)N1CCC[C@@H](C1)c1cnc(o1)CCCc1c(Cl)cc3[nH]ncc3c1-2 [Example 386, (18S)-9-chloro-31-fluoro-25-(((2R,7aS)-2-fluorotetrahydro-1H-pyrrolo[1,2-a]pyrrol-7a(5H)-yl)methoxy)-33-oxa-5,6,15,22,24,26,30-heptaazaheptacyclo[25.3.1.1~14,17~.1~18,22~.0~2,10~.0~3,7~.0~23,28~]tritriaconta-1(31),2,4,7,9,14,16,23,25,27,29-undecaene] | – | – | 1810 | 3730 |
| Cc1cc2[nH]ncc2c2c1CC/C=C\CO[C@@H]1CCCN(C1)c1nc(OC[C@@]34CCCN3C[C@H](F)C4)nc3c(F)c-2ncc13 [Example 133] | 240 | 241 | – | – |
| O=C1OCCc2c(Cl)cc3[nH]ncc3c2-c2ncc3c(nc(OC[C@@]45CCCN4C[C@H](F)C5)nc3c2F)N2CCOC[C@]3(C2)C[C@@H](C3)O1 [Example 317, (1S,3S)-10-chloro-33-fluoro-24-(((2R,7aS)-2-fluorotetrahydro-1H-pyrrolo[1,2-a]pyrrol-7a(5H)-yl)methoxy)-4,6,30-trioxa-13,14,19,23,25,27-hexaazaheptacyclo[25.4.1.1~1,3~.1~18,22~.0~9,17~.0~12,16~.0~21,26~]tetratriaconta-9,11,14,16,18(33),19,21,23,25-nonaen-5-one] | 35 | 50 | – | – |
| C[C@]12CCCCN(C1)c1nc(OC[C@@]34CCCN3C[C@H](F)C4)nc3c(F)c(ncc13)-c1c(c(Cl)cc3[nH]ncc13)CCCCC(=O)N2 [Example 165, (26S)-18-chloro-32-fluoro-4-(((2R,7aS)-2-fluorotetrahydro-1H-pyrrolo[1,2-a]pyrrol-7a(5H)-yl)methoxy)-26-methyl-1,3,5,9,14,15,25-heptaazahexacyclo[24.4.1.1~6,10~.0~2,7~.0~11,19~.0~12,16~]dotriaconta-2,4,6,8,10(32),11,13,16,18-nonaen-24-one] | 4430 | 12700 | – | – |
| CN1C(=O)CCCCc2c(Cl)cc3[nH]ncc3c2-c2ncc3c(nc(OC[C@@]45CCCN4C[C@H](F)C5)nc3c2F)N2CCOCC1C2 (mixture of isomers) [Example 64] | 81 | 98 | – | – |
| Cc1cc2[nH]ncc2c2c1CCCCO[C@@H](C)[C@H]1CN(CCO1)c1nc(OC[C@@]34CCCN3C[C@H](F)C4)nc3c(F)c-2ncc13 [Example 242, (16S,17R)-30-fluoro-24-(((2R,7aS)-2-fluorotetrahydro-1H-pyrrolo[1,2-a]pyrrol-7a(5H)-yl)methoxy)-9,16-dimethyl-15,18-dioxa-5,6,21,23,25,29-hexaazahexacyclo[24.3.1.1~17,21~.0~2,10~.0~3,7~.0~22,27~]hentriaconta-1(30),2,4,7,9,22,24,26,28-nonaene] | 1050 | 1140 | – | – |
| O=C1CCCCc2c(Cl)cc3[nH]ncc3c2-c2ncc3c(nc(OC[C@@]45CCCN4C[C@H](F)C5)nc3c2F)N2CC[C@H]3[C@@H](C2)N1CC3(F)F (single isomer, unassigned) [Example 402] | – | – | 46 | 97 |
| O=C1CCCc2cccc3cccc(c23)-c2ncc3c(nc(OC[C@@]45CCCN4C[C@H](F)C5)nc3c2F)N2CCC[C@H](C2)O1 [Example 29, (15R)-31-Fluoro-8-(((2R,7aS)-2-fluorotetrahydro-1H-pyrrolo[1,2-a]pyrrol-7a(5H)-yl)methoxy)-16-oxa-3,7,9,11-tetraazahexacyclo[19.7.1.1˜2,6˜.1˜11,15˜.0˜5,10˜.0˜25,29˜]hentriaconta-1(28),2(31),3,5,7,9,21,23,25(29),26-decaen-17-one bis(2,2,2-trifluoroacetate)] | 513 | 443 | – | – |
| [O-][S+]1CCCCc2c(Cl)cc3[nH]ncc3c2-c2ncc3c(nc(OC[C@@]45CCCN4C[C@H](F)C5)nc3c2F)N2CCC[C@H](C2)C1 (mixture of isomers) [Example 144] | 79 | 146 | – | – |
| Fc1c2ncc3c(nc(OC[C@@]45CCCN4C[C@H](F)C5)nc13)N1CCO[C@]3(C1)C[C@H](C3)OCCCCc1c(Cl)cc3[nH]ncc3c1-2 (single isomer, unassigned) [Example 262] | 2420 | 3260 | – | – |
| N#Cc1cc(Cl)c2c(c1)-c1ncc3c(nc(OC[C@@]45CCCN4C[C@H](F)C5)nc3c1F)N1CCOC[C@H](C1)OC(=O)OCCC2 [Example 216] | 55 | 74 | – | – |
| O=C1N[C@H]2C[C@@H](O)CN(C2)c2nc(OC[C@@]34CCCN3C[C@H](F)C4)nc3c(F)c(ncc23)-c2c(c(Cl)cc3[nH]ncc23)CCCO1 [Example 285, (17S,19R)-9-chloro-30-fluoro-24-(((2R,7aS)-2-fluorotetrahydro-1H-pyrrolo[1,2-a]pyrrol-7a(5H)-yl)methoxy)-19-hydroxy-14-oxa-5,6,16,21,23,25,29-heptaazahexacyclo[24.3.1.1~17,21~.0~2,10~.0~3,7~.0~22,27~]hentriaconta-1(30),2,4,7,9,22,24,26,28-nonaen-15-one] | 610 | 1910 | – | – |
| Fc1c2ncc3c(nc(OC[C@@]45CCCN4C[C@H](F)C5)nc13)N1CCO[C@@H](C1)c1coc(n1)CCCc1c(Cl)cc3[nH]ncc3c1-2 [Example 389, (18S)-9-chloro-31-fluoro-25-(((2R,7aS)-2-fluorotetrahydro-1H-pyrrolo[1,2-a]pyrrol-7a(5H)-yl)methoxy)-15,19-dioxa-5,6,22,24,26,30,33-heptaazaheptacyclo[25.3.1.1~14,17~.1~18,22~.0~2,10~.0~3,7~.0~23,28~]tritriaconta-1(31),2,4,7,9,14(33),16,23,25,27,29-undecaene] | – | – | 1020 | 3960 |
| Fc1c2ncc3c(nc(OC[C@@]45CCCN4C[C@H](F)C5)nc13)N1CCO[C@@H](COCCOCc3c(Cl)cc4[nH]ncc4c3-2)C1 [Example 152, (17R)-9-chloro-30-fluoro-24-(((2R,7aS)-2-fluorotetrahydro-1H-pyrrolo[1,2-a]pyrrol-7a(5H)-yl)methoxy)-12,15,18-trioxa-5,6,21,23,25,29 hexaazahexacyclo[24.3.1.1~17,21~.0~2,10~.0~3,7~.0~22,27~]hentriaconta-1(30),2,4,7,9,22,24,26,28-nonaene] | 56 | 71 | – | – |
| OC1CCCCc2c(Cl)cc3[nH]ncc3c2-c2ncc3c(nc(OC[C@@]45CCCN4C[C@H](F)C5)nc3c2F)N2CCOCC(C1)C2 (stereo partly drawn) [Example 235] | 125 | 240 | – | – |
| Cc1cc2[nH]ncc2c2c1CCCCC(=O)N1CC3CCN(CC3C1)c1nc(OC[C@@]34CCCN3C[C@H](F)C4)nc3c(F)c-2ncc13 (mixture of isomers) [Example 57] | 194 | 221 | – | – |
| O[C@H]1C[C@@H]2CN(C1)c1nc(OC[C@@]34CCCN3C[C@H](F)C4)nc3c(F)c(ncc13)-c1c(c(Cl)cc3[nH]ncc13)CCCc1nc2no1 (mixture of isomers) [Example 377] | – | – | 2 | 5 |
| Cc1c2ncc3c(nc(OCC(C)(C)O)nc13)N1CCC[C@](C)(C1)NC(=O)CCCc1c(F)ccc3cc(O)cc-2c13 [Example 26, (15R)-22-Fluoro-27-hydroxy-8-(2-hydroxy-2-methylpropoxy)-15,31-dimethyl-3,7,9,11,16-pentaazahexacyclo[19.7.1.1˜2,6˜.1˜11,15˜.0˜5,10˜.0˜25,29˜]hentriaconta-1(28),2(31),3,5,7,9,21,23,25(29),26-decaen-17-one] | 109 | 124 | – | – |
| Cc1cc2[nH]ncc2c2c1CC/C=C/CO[C@@H]1CCCN(C1)c1nc(OC[C@@]34CCCN3C[C@H](F)C4)nc3c(F)c-2ncc13 [Example 134] | 59 | 56 | – | – |
| Cc1cc2[nH]ncc2c2c1CCCCCC(=O)O[C@@H]1CCCN(C1)c1nc(OC[C@@]34CCCN3C[C@H](F)C4)nc3c(F)c-2ncc13 [Example 34, (18R)-31-fluoro-25-(((2R,7aS)-2-fluorotetrahydro-1H-pyrrolo[1,2-a]pyrrol-7a(5H)-yl)methoxy)-9-methyl-17-oxa-5,6,22,24,26,30-hexaazahexacyclo[25.3.1.1~18,22~.0~2,10~.0~3,7~.0~23,28~]dotriaconta-1(31),2,4,7,9,23,25,27,29-nonaen-16-one] | 177 | 220 | – | – |
